Data reported in ChEMBL document CHEMBL3507680, “University of Dundee, Gates Library screen for HepG2 cell viability”.

Test: Human HepG2 cell viability assay in 384 well format
Format: toxicity, cell-based
Parameters: dose 125 nL, time 70.5 hour; concentration not given beside the values
Conditions: HepG2 cells, read-out: Inhibition

| Structure (SMILES) | cytotoxicity at 70.5 h [%] |
| --- | --- |
| Cc1cccc(CN2CCc3ncnc(N4CCOCC4)c3CC2)n1 | -1.5 |
| Cc1cnc(C(=O)N2C[C@H](N3CCOCC3)[C@@H]3OCCC[C@@H]32)cn1 | -13.1 |
| CSC(C)C(=O)N1CCCN(c2ncccc2C#N)CC1 (configuration not stated) | 12.4 |
| c1cc(CN2CCO[C@@H]3CNC[C@@H]32)cs1 | -2.99 |
| COC1CCCOC12CCN(C(=O)NCCc1cccs1)CC2 (configuration not stated) | -0.941 |
| COC(=O)CNC(=O)N1CCC2(CC1)CC(c1ccccc1)CN(C)C2 (configuration not stated) | 15.9 |
| CCNC(=O)C1CCN(Cn2nc(-c3ccccc3)oc2=O)CC1 | -1.22 |
| Cc1nn(C)c(C)c1OCC(=O)N1CCCC1 | -6 |
| Cn1c(=O)n(C)c2cc(NS(=O)(=O)Cc3ccccc3)ccc21 | -6.3 |
| CCn1c(C)cc(C(=O)N2CCCC(n3nc(C)nc3C)C2)c1C (configuration not stated) | -7.33 |
| CCc1[nH]ncc1C(=O)N1CCCC(n2cccn2)C1 (configuration not stated) | 3.94 |
| COc1c(C2CCCN2c2ncnc3ccsc23)c(C)nn1C (configuration not stated) | -3.57 |
| COc1cc(NCc2cccnc2)c(-c2nn[nH]n2)cc1OC | -11.1 |
| CCOc1c(Cl)cccc1NCc1cc(C)on1 | 6.44 |
| CCn1ncc(CNC(=O)c2cn(CCC3CCCCN3)nn2)c1C (configuration not stated) | -6.28 |
| Cc1nc(N2CCOCC2)nc2c1CCN(Cc1cccnc1)CC2 | -17.8 |
| CCC(=O)NC(Cc1cc(N(C)C)nc(C2CC2)n1)c1ccccc1 (configuration not stated) | -2.39 |
| CN(Cc1nccn1C)c1nccc(N2CCCC(O)C2)n1 (configuration not stated) | 2.11 |
| Cc1nn(CC(=O)Nc2ccon2)c(C)c1Br | -11.8 |

| Structure (SMILES) | cytotoxicity at 70.5 h [%] |
| --- | --- |
| c1csc(-c2nc(CN3CCCC3Cn3cccn3)co2)c1 (configuration not stated) | -75.5 |
| Cc1ccccc1N1CCN(c2cc(N(C)C)ncn2)C(C)C1 (configuration not stated) | -9.42 |
| N#Cc1ccccc1N1CCCN(C(=O)NCc2cc[nH]n2)CC1 | -6.85 |
| CN(CC1CCOCC1)C(=O)NCCCN1CCCCC1 | -3.15 |
| CCc1cnc(NCC(C)Oc2cccnc2)nc1 (configuration not stated) | -5.39 |
| COc1nccnc1-c1cccc(-c2ccn(CC3COCCO3)n2)c1 (configuration not stated) | -6.47 |
| Cc1nccn1CCC1CCCCN1C(=O)c1ccc2[nH]nnc2c1 (configuration not stated) | -1.82 |
| CC(CCNC(=O)N1CCC1)N(C)C(=O)OC(C)(C)C (configuration not stated) | -0.749 |
| CO[C@@H]1CCN(S(=O)(=O)c2cccs2)[C@H]1Cc1cccnc1 | -4.13 |
| O=C(O)c1ccc(-c2cscn2)cc1 | -6.68 |
| COc1cc(CNC(C)c2cccc(Cl)c2)cc(OC)c1OC (configuration not stated) | -9.01 |
| COCCOc1ncccc1CNC(=O)N1CCOCC1 | -7.27 |
| Cc1cc(CN2CCC(CNS(=O)(=O)c3ccccc3F)CC2)c(C)o1 | 37.7 |
| COCCNC(=O)c1cc(C(C)C)nc(N2CCCCC2)n1 | -9.32 |
| CC(C)Cn1nnnc1SC(C(=O)NCc1cccnc1)C(C)C (configuration not stated) | -4.78 |
| O=C(O)c1c(-c2cncnc2)ncc2c1CCN(CC1CCOC1)C2 (configuration not stated) | -4.73 |
| O=C(NCCc1ccncc1)c1cccc(S(=O)(=O)NC2CCOC2)c1 (configuration not stated) | 5.63 |
| O=C(NCCCc1ccc(O)cc1)C1(O)Cc2ccccc2C1 | -8.24 |
| CCNc1cc2c(nn1)CCN(C(=O)c1ccnc(N(C)C)c1)C2 | 0.651 |

| Structure (SMILES) | cytotoxicity at 70.5 h [%] |
| --- | --- |
| CC(C)Oc1ncc(C(=O)N2CCC(N(C)C)CC2)cc1Cl | -9.31 |
| Cc1ccc2cc(C(=O)N3CCCC3Cn3cccn3)[nH]c2c1 (configuration not stated) | 24.4 |
| NC(=O)c1ccc(N2CCCCC2)c(NC(=O)c2ccc(F)cc2Cl)c1 | 3.11 |
| CC1c2ncc(Cn3cncn3)n2CCN1C(=O)C1CCOCC1 (configuration not stated) | -2.59 |
| O=C(NCCCNc1ccc(C(F)(F)F)cn1)c1ccccc1 | -8.08 |
| Nc1ccnc(N2C[C@@H]3CC[C@H](C2)N(CC2CCC2)C3=O)n1 | -3.52 |
| O=C1COC2(CCN(Cc3ccncc3)CC2)CN1 | -11.9 |
| Cc1cnn(CC2CN(CCN3CCCC3=O)CCO2)c1 (configuration not stated) | -11.5 |
| CSc1ccc(C(=O)C2CCCN(C(=O)CCn3cncn3)C2)cc1 (configuration not stated) | -16.6 |
| CCOC(=O)CCn1cnc2onc(-c3ccc(OC)cc3)c2c1=O | 35.2 |
| CC(NC(=O)Nc1cccnc1N1CCOCC1)c1ccccc1 (configuration not stated) | -8.45 |
| CN(C)C(=O)N1CCC(C2C(=O)Nc3ccccc32)CC1 (configuration not stated) | -10.4 |
| COc1cccc(CCn2ccnc2-c2cn(C3CCNCC3)nn2)c1 | 28.6 |
| CCn1ncnc1CN1CCc2[nH]cnc2C1c1ccccn1 (configuration not stated) | 14.3 |
| CCOc1cc(CNC(=O)NC2CC=CC2)ccc1OC(F)F | -5.65 |
| COc1ccc(C(=O)N2C[C@@H](CN3CCOCC3)[C@@H](CO)C2)c(C)c1 | -7.76 |
| Cn1nccc1-c1ncc2c(c1C(=O)O)CCN(Cc1cccnc1)C2 | -2.63 |
| O=C(NC1CC1)c1nc(COc2ccc3c(c2)OCO3)no1 | -9.12 |
| Cn1cc(CNCC2(N3CCCCC3)Cc3ccccc3C2)cn1 | -4.33 |
